The subject of assay [1] is Escherichia coli. Kind of assay: Inhibition of Escherichia coli MurD assessed as residual activity at 100 uM after 15 mins by malachite green assay.
Assay [2] in a line: Inhibition of Escherichia coli MurE after 15 mins by malachite green assay.
Assay [3] concerns Escherichia coli. The assay can be described thus: Inhibition of Escherichia coli MurE assessed as residual activity at 100 uM after 15 mins by malachite green assay.
Assay [4] is described as follows: Inhibition of MurD.
A short description of assay [5]: Inhibition of Escherichia coli MurD.
A short description of assay [6]: Inhibition of MurE assessed as residual activity.
For assay [7], the system named is Escherichia coli. Kind of assay: Inhibition of Escherichia coli MurE assessed as residual activity at 250 uM after 15 mins by malachite green assay.
The test system of assay [8] is Escherichia coli. Kind of assay: Inhibition of Escherichia coli MurD assessed as residual activity at 250 uM after 15 mins by malachite green assay.
The nature of assay [9]: Inhibition of Escherichia coli MurD after 15 mins by malachite green assay.
In a further assay the test system is Staphylococcus aureus. Kind of assay: Antibacterial activity against Staphylococcus aureus ATCC 29213. Type of assay: functional.
For the next assay, the system named is Enterococcus faecalis. Kind of assay: Antibacterial activity against Enterococcus faecalis ATCC 29212. The assay is classed as functional.
Assay [10] relates to Escherichia coli. Kind of assay: Antibacterial activity against Escherichia coli ATCC 25922. Type of assay: functional.
Another assay has as its system Pseudomonas aeruginosa. Kind of assay: Antibacterial activity against Pseudomonas aeruginosa ATCC 27853. The assay is classed as functional.

In general, IC50 refers to the concentration needed to halve the response being measured. A low value points to inhibition by little substance. What is called MBC is the lowest tested concentration that kills the bacteria rather than only halting them. The term MIC denotes the least concentration at which growth counts as inhibited.

With `Cc1cc(/C=C2/C(=O)NC(=S)N(c3cccc(Cl)c3Cl)C2=O)c(C)n1-c1cc(C(=O)O)cc(C(=O)O)c1`, the Activity in the assay on Escherichia coli [1] turned out to be 83%. The compound also came in with an IC50 in assay [2] of 79 µM.

On to `CCOc1ccc2nc(SCC(=O)Nc3cc(C(=O)O)cc(C(=O)O)c3)sc2c1`, for which the Activity in the assay on Escherichia coli [1] came out at 98%; with Escherichia coli [3], 84%.

`CCCCOc1ccc2cc(S(=O)(=O)N[C@H](CCC(=O)O)C(=O)O)ccc2c1` displayed an IC50 in assay [4] of 276 µM.

Turning to `C[C@@H](NS(=O)(=O)Cc1ccc([N+](=O)[O-])cc1)C(=O)N[C@H](C)P(=O)(O)C[C@H](CCC(=O)O)C(=O)O`, the IC50 in assay [5] was 78 µM.

`CCCCCOc1ccc2cc(S(=O)(=O)N[C@H](CCC(=O)O)C(=O)O)ccc2c1` registered an IC50 in [5] of 239 µM.

In the case of `C[C@@H](NC(=O)/C=C/c1ccc2c(c1)OCO2)P(=O)(O)C[C@H](CCC(=O)O)C(=O)O`, the IC50 in assay [5] came to 95 µM.

In assay [5], `C[C@@H](NS(=O)(=O)Cc1ccc([N+](=O)[O-])cc1)C(=O)N[C@H](C)P(=O)(O)C[C@@H](CC(=O)O)C(=O)O` showed an IC50 of 78 µM. Further, the Activity in [6] was determined as 8%.

For the compound `Cc1cc(C=C2C(=O)NC(=S)NC2=O)c(C)n1-c1cc(C(=O)O)cc(C(=O)O)c1`, the Activity came to 99% with Escherichia coli [1] and 76% with Escherichia coli [3].

Compound `O=C(O)CC[C@H](NS(=O)(=O)c1ccc2cc(O)ccc2c1)C(=O)O` displayed an IC50 in assay [5] of 90 µM.

On to `CCOc1ccc2[nH]c(SCC(=O)Nc3cc(C(=O)O)cc(C(=O)O)c3)nc2c1`, for which the results for the Activity with Escherichia coli [1] and in the assay on Escherichia coli [3] were 89% and 95%, respectively.

On to `O=C(O)c1cc(C(=O)O)cc(-c2ccc(/C=C3/SC(=S)N(NC(=O)c4cccs4)C3=O)o2)c1`, for which the results for the Activity in the assay with Escherichia coli [7] and with Escherichia coli [8] were 81% and 82%, respectively.

On to `Cc1cc(/C=C2/C(=O)NC(=S)N(c3ccccc3)C2=O)c(C)n1-c1cc(C(=O)O)cc(C(=O)O)c1`, for which the IC50 in [2] is 89 µM.

For the compound `COc1ccc(-c2ccc(/C=C3\SC(=S)N(C(CCC(=O)O)C(=O)O)C3=O)o2)c([N+](=O)[O-])c1` (stereo not drawn), the Activity came to 70% with Escherichia coli [7], 87% with Escherichia coli [1] and 70% in the assay on Escherichia coli [3].

In assay [5], `N#Cc1ccc(COc2ccc3cc(S(=O)(=O)N[C@H](CCC(=O)O)C(=O)O)ccc3c2)cc1` came in with an IC50 of 134 µM.

Take `CCc1ccccc1N1C(=O)/C(=C\c2cc(C)n(-c3cc(C(=O)O)cc(C(=O)O)c3)c2C)C(=O)NC1=S`: the Activity was found to be 92% with Escherichia coli [1] and 55% in the assay with Escherichia coli [3].

Consider `CCOC(=O)COc1ccc2cc(S(=O)(=O)N[C@H](CCC(=O)O)C(=O)O)ccc2c1`, for which the IC50 in assay [5] is 192 µM.

As for `Cc1cc(/C=C2/C(=O)NC(=S)N(c3cccc(Cl)c3)C2=O)c(C)n1-c1cc(C(=O)O)cc(C(=O)O)c1`, the Activity in the assay on Escherichia coli [1] is 90%. For the same compound, the IC50 in [2] worked out at 104 µM.

On to `O=C(O)c1cc(C(=O)O)cc(-c2ccc(/C=C3/SC(=S)N(c4ccc5c(c4)OCO5)C3=O)o2)c1`, for which the IC50 in assay [9] came to 270 µM; in [2], 32 µM.

As for `O=C(O)CC[C@@H](NC(=O)c1ccc(CNc2ccc(/C=C3\SC(=S)NC3=O)cc2)cc1)C(=O)O`, the MBC against Staphylococcus aureus, in the assay with Enterococcus faecalis, in the assay with Escherichia coli [10] and in the assay on Pseudomonas aeruginosa was greater than 128 µg/mL in each case. In addition, the MIC in the assay on Staphylococcus aureus, in the assay on Enterococcus faecalis, in the assay with Escherichia coli [10] and in the assay with Pseudomonas aeruginosa was greater than 128 µg/mL throughout.

In the case of `CCCCOc1ccc2cc(S(=O)(=O)N[C@@H](CCC(=O)O)C(=O)O)ccc2c1`, the IC50 in [4] worked out at 710 µM.

In the case of `Cc1cc(/C=C2/C(=O)NC(=S)N(c3ccc(Cl)cc3)C2=O)c(C)n1-c1cc(C(=O)O)cc(C(=O)O)c1`, the Activity in the assay on Escherichia coli [1] came to 69%. In [2], this compound returned an IC50 of 97 µM.

Turning to `O=C(O)CC[C@@H](NC(=O)c1ccc(/C=C2\SC(=S)NC2=O)cc1)C(=O)O`, the MBC against Staphylococcus aureus, against Enterococcus faecalis, with Escherichia coli [10] and with Pseudomonas aeruginosa was greater than 128 µg/mL throughout. Besides, the MIC in the assay with Staphylococcus aureus, against Enterococcus faecalis, in the assay with Escherichia coli [10] and against Pseudomonas aeruginosa was greater than 128 µg/mL throughout.

Regarding `COc1cccc(/C=C2\SC(=S)N(C(CCC(=O)O)C(=O)O)C2=O)c1` (stereo not drawn), the Activity is 98% with Escherichia coli [1] and 89% in the assay with Escherichia coli [3].

As for `COC(=O)CC[C@@H](NC(=O)c1ccc(/C=C2\SC(=S)NC2=O)cc1)C(=O)OC`, the MBC against Staphylococcus aureus, against Enterococcus faecalis, in the assay with Escherichia coli [10] and in the assay on Pseudomonas aeruginosa was greater than 128 µg/mL throughout. Further, the MIC against Staphylococcus aureus, against Enterococcus faecalis, against Escherichia coli [10] and in the assay on Pseudomonas aeruginosa was greater than 128 µg/mL each time.

Regarding `O=C(O)CCC(C(=O)O)N1C(=O)/C(=C/c2ccc(-c3ccc([N+](=O)[O-])cc3)o2)SC1=S` (stereo not drawn), the Activity in the assay with Escherichia coli [1] came out at 74%. This compound came in with an IC50 in assay [2] of 61 µM.

For the compound `O=C(O)CC[C@@H](NS(=O)(=O)c1ccc2cc(OCCCc3ccccc3)ccc2c1)C(=O)O`, the midpoint of inhibition in [5], the IC50, lay at 180 µM.

In the case of `O=C(CSc1nc2ccccc2s1)Nc1cc(C(=O)O)cc(C(=O)O)c1`, the Activity in the assay on Escherichia coli [1] worked out at 97%; in the assay with Escherichia coli [3], 94%.

Values taken from ChEMBL document CHEMBL1151879, “Discovery of novel benzene 1,3-dicarboxylic acid inhibitors of bacterial MurD and MurE ligases by structure-based virtual screening approach” (Bioorg Med Chem Lett, 2009).
